Assay results taken from the supplement of paper PMC4723716.
Where a name gives a salt, the structure may show the parent alone.

Tested on: Plasmodium falciparum NF54 gametocytes
Conditions: 384, incubation time: 72 h
Method: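 Known antimalarials and MMV control compounds in dose response against each stage (I–V) […] The fitted EC50 is reported as IC50 in µM; '>' marks the top dose reached without a curve.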

[1] = gametocyte stage: Stage I Dose Response IC50 (µM), assay protocol: SaLSSA
[2] = gametocyte stage: Stage II Dose Response IC50 (µM), assay protocol: SaLSSA
[3] = gametocyte stage: Stage III Dose Response IC50 (µM), assay protocol: SaLSSA
[4] = gametocyte stage: Stage IV Dose Response IC50 (µM), assay protocol: SaLSSA
[5] = gametocyte stage: Stage V Dose Response IC50 (µM), assay protocol: SaLSSA
[6] = gametocyte stage: Stage I Dose Response IC50 (µM), assay protocol: TSSA
[7] = gametocyte stage: Stage II Dose Response IC50 (µM), assay protocol: TSSA
[8] = gametocyte stage: Stage III Dose Response IC50 (µM), assay protocol: TSSA
[9] = gametocyte stage: Stage IV Dose Response IC50 (µM), assay protocol: TSSA
[10] = gametocyte stage: Stage V Dose Response IC50 (µM), assay protocol: TSSA

| Structure (SMILES) | IC50 of gametocyte viability [1] [µM] | IC50 of gametocyte viability [2] [µM] | IC50 of gametocyte viability [3] [µM] | IC50 of gametocyte viability [4] [µM] | IC50 of gametocyte viability [5] [µM] | IC50 of gametocyte viability [6] [µM] | IC50 of gametocyte viability [7] [µM] | IC50 of gametocyte viability [8] [µM] | IC50 of gametocyte viability [9] [µM] | IC50 of gametocyte viability [10] [µM] |
| --- | --- | --- | --- | --- | --- | --- | --- | --- | --- | --- |
| C[C@H]1[C@H](OC(=O)CCC(=O)O)O[C@@H]2O[C@@]3(C)CC[C@H]4[C@H](C)CC[C@@H]1[C@@]24OO3 [Artesunate] [listing 1 of 2 here] | 0.00773 | 0.00351 | 0.0126 | 0.0491 | > 10.6 | – | – | – | – | – |
| Cc1cc2nc3c(=O)[nH]c(=O)nc-3n(C[C@H](O)[C@H](O)[C@H](O)CO)c2cc1C [Flavin mononucleotid (Riboflavin)] | > 12.5 | > 12.5 | > 12.5 | > 12.5 | > 12.5 | – | – | – | – | – |
| CC(C)(N)CNC(=O)CC1CCC2(CC1)OOC1(O2)C2CC3CC(C2)CC1C3 (stereo not given) | – | – | – | – | – | 0.00821 | 0.00599 | 0.00837 | 0.00742 | > 12.5 |
| CC(C)(C)NCc1cc(Nc2ccnc3cc(Cl)ccc23)c2c(c1O)CCCC2 [Naphthoquine] | 0.0251 | 0.0145 | 0.296 | > 4.17 | > 4.17 | – | – | – | – | – |
| CCN(CC)CCCC(C)Nc1cc(OC)cc2cccnc12 (stereo not given) [Pamaquine (diethlyprimaquine)] | 1.68 | 1.4 | 2.41 | 2.82 | 2.53 | 1.67 | 2.87 | 5.15 | 5.28 | 9.38 |
| O=C1C(O)=C([C@H]2CC[C@H](c3ccc(Cl)cc3)CC2)C(=O)c2ccccc21 [Atovaquone] | – | – | – | – | – | > 12.5 | > 12.5 | > 12.5 | > 12.5 | > 12.5 |
| C[C@H]1c2cccc(O)c2C(=O)C2=C(O)[C@]3(O)C(=O)C(C(N)=O)=C(O)[C@@H](N(C)C)[C@@H]3[C@@H](O)[C@@H]21 [Doxycyclin] | > 12.5 | > 12.5 | > 12.5 | > 12.5 | > 12.5 | – | – | – | – | – |
| c1cc([C@H]2CC[C@]3(CC2)OO[C@]2(O3)C3CC4CC(C3)CC2C4)ccc1OCCN1CCOCC1 [OZ 439 mesylate] | – | – | – | – | – | 0.0102 | 0.01 | 0.00852 | 0.00553 | > 12.5 |
| COc1cc(N[C@H](C)CCCN)c2nccc(C)c2c1Oc1ccc(Cl)c(Cl)c1 [NPC-1161B] | 2 | 2.02 | 3.51 | 3.6 | 2.86 | – | – | – | – | – |
| CN(C)c1ccc2nc3ccc(=[N+](C)C)cc-3sc2c1 [Methylene Blue trihydrate] | – | – | – | – | – | 0.0222 | 0.0164 | 0.0181 | 0.0454 | 1.04 |
| C=C[C@H]1CN2CC[C@H]1C[C@@H]2[C@@H](O)c1ccnc2ccc(OC)cc12 [Quinidine] | 0.138 | 0.208 | > 9.17 | > 12.5 | > 11.8 | – | – | – | – | – |
| CN(C)c1ccc2nc3ccc(N(C)C)cc3[s+]c2c1 [Methylene Blue trihydrate] | 0.0199 | 0.0153 | 0.0133 | 0.0117 | 0.258 | – | – | – | – | – |
| O[C@@H](c1cc(C(F)(F)F)nc2c(C(F)(F)F)cccc12)[C@H]1CCCCN1 (racemic) [Mefloquine (Racemic)] | 0.0441 | 0.052 | 0.143 | 0.818 | 0.132 | – | – | – | – | – |
| C[C@H]1[C@H](N2CCS(=O)(=O)CC2)O[C@@H]2O[C@@]3(C)CC[C@H]4[C@H](C)CC[C@@H]1[C@@]24OO3 [Artemisone] | 0.00277 | 0.00176 | 0.00339 | 0.00421 | > 12.5 | – | – | – | – | – |
| N=C(N)c1ccc(OCCCCCOc2ccc(C(=N)N)cc2)cc1 [Pentamidine] [listing 1 of 2 here] | 0.397 | 0.591 | 0.697 | 0.813 | 2.14 | – | – | – | – | – |
| Clc1ccc2c(N3CCN(CCCN4CCN(c5ccnc6cc(Cl)ccc56)CC4)CC3)ccnc2c1 [Piperaquine phosphate] [listing 1 of 2 here] | 0.018 | 0.0145 | 0.031 | > 4.17 | > 4.17 | – | – | – | – | – |
| CCCCN(CCCC)CC(O)c1cc(Cl)cc2c1-c1ccc(Cl)cc1/C2=C/c1ccc(Cl)cc1 (stereo not given) [Lumefantrine] | – | – | – | – | – | 0.0224 | 0.0352 | 0.0227 | > 9.77 | > 12.5 |
| Clc1ccc2c(N3CCN(CCCN4CCN(c5ccnc6cc(Cl)ccc56)CC4)CC3)ccnc2c1 [Piperaquine phosphate] [listing 2 of 2 here] | – | – | – | – | – | 0.0223 | 0.0262 | > 4.17 | > 4.17 | > 4.17 |
| C[C@H]1[C@H](OC(=O)CCC(=O)O)O[C@@H]2O[C@@]3(C)CC[C@H]4[C@H](C)CC[C@@H]1[C@@]24OO3 [Artesunate] [listing 2 of 2 here] | – | – | – | – | – | 0.00565 | 0.00577 | 0.0172 | 0.02 | > 12.5 |
| O[C@@H](c1cc(C(F)(F)F)nc2c(C(F)(F)F)cccc12)[C@H]1CCCCN1 [Mefloquine (+ RS)] | 0.0379 | 0.039 | 0.078 | 0.579 | 0.158 | – | – | – | – | – |
| CC(=O)N[C@@H](C(=O)O)C(C)(C)S [N-acetyl-D-penicillamine] | > 12.5 | > 12.5 | > 12.5 | > 12.5 | > 12.5 | – | – | – | – | – |
| CC[C@H]1OC(=O)[C@H](C)[C@@H](O[C@H]2C[C@@](C)(OC)[C@@H](O)[C@H](C)O2)[C@H](C)[C@@H](O[C@@H]2O[C@H](C)C[C@H](N(C)C)[C@H]2O)[C@](C)(O)C[C@@H](C)CN(C)[C@H](C)[C@@H](O)[C@]1(C)O [Azithromycin] | – | – | – | – | – | > 12.5 | > 12.5 | > 12.5 | > 12.5 | > 12.5 |
| N=C(N)c1ccc(OCCCCCOc2ccc(C(=N)N)cc2)cc1 [Pentamidine] [listing 2 of 2 here] | – | – | – | – | – | 0.713 | 0.878 | 1.19 | 1 | 2.36 |
| CO[C@H]1O[C@@H]2O[C@@]3(C)CC[C@H]4[C@H](C)CC[C@@H]([C@H]1C)[C@@]24OO3 [Artemether] | 0.0159 | 0.00459 | 0.00617 | 0.019 | > 12.5 | 0.0183 | 0.0125 | 0.0175 | 0.0184 | > 12.5 |
| Nc1ccc(S(=O)(=O)c2ccc(N)cc2)cc1 [Dapsone] | > 12.5 | > 12.5 | > 12.5 | > 12.5 | > 12.5 | – | – | – | – | – |
| C=C[C@H]1CN2CC[C@H]1C[C@H]2[C@H](O)c1ccnc2ccc(OC)cc12 [Quinine sulfate dihydrate (coeff. 2)] | – | – | – | – | – | 0.918 | 0.767 | 1.58 | > 12.5 | > 12.5 |
| CCC[C@@H]1C[C@@H](C(=O)N[C@@H]([C@H]2O[C@H](SC)[C@H](O)[C@@H](O)[C@H]2O)[C@H](C)Cl)N(C)C1 [clindamycin] | > 12.5 | > 12.5 | > 12.5 | > 12.5 | > 12.5 | – | – | – | – | – |
| C[C@@H]1C[C@@H]([C@H](O)CC2CC(=O)NC(=O)C2)C(=O)[C@@H](C)C1 [Cycloheximide] | – | – | – | – | – | 1.23 | 2.46 | 2.51 | 1.92 | 4.62 |
